{
  "source": "patent US6362215B1",
  "about": "(priority 1998, dated 2002)",
  "key": {"[1]": {"system": "laying hens", "experiment": "Other tests on shell quality of older hens supplied with calcium L-pidolate", "type": "in vivo", "conditions": "between the 60th week and the 72nd week", "description": "The decrease in quality of the shell increases between the 55th and 65th week. The hens are generally sacrificed at 68 to 70 weeks. […] As a result, the duration of exploitation of the hen can thus be prolonged so as to improve the profit of raising by reducing the hen/egg cost."}, "[2]": {"system": "laying hens", "experiment": "Henhouse test on laying hens, calcium L-pidolate in feedstuff; eggs examined by candling", "source_text": "The downgraded percentage corresponds to the percentage of eggs with cracked shells, which shell having been carefully examined by candling so as to detect any rupture of the shell (cracks, holes, etc.). The percentage of uncracked egg shells was computed from eggs on which no shell rupture was observed by candling."}},
  "data": [
    {"substance": "calcium L-pidolate", "values": [
      {"measurement": "decrease in quality of the shell", "setting": "[1]", "result": "can be stabilized"},
      {"measurement": "persistence of improvements in egg color (pure white eggs or chalky appearance) after stopping treatment", "setting": "[2]; after stopping treatment", "result": "persisted eight to ten days after stopping treatment"},
      {"measurement": "percentage of downgraded eggs (eggs with cracked shells)", "setting": "[2]; day after the day of administration in feedstuff, 19,300 hens, candling", "result": "decrease of the percentage of downgraded eggs"},
      {"measurement": "effect on quality, in particular mechanical strength of the egg shells, after end of treatment", "setting": "[2]; day after the end of treatment", "result": "decreased and disappeared completely"},
      {"measurement": "percentage of downgraded eggs over the test period", "setting": "[2]; tests of FIG. 1, winter, October-November", "result": "maintaining the percentage of downgraded eggs at a substantially constant value"}
    ]}
  ]
}
